Laboratory results taken from patent publication US10160785B2, “Antimicrobial peptides and their use for the treatment of topical infections” (priority 2015, dated 2018).

Key:
[1] = system: Bacillus subtilis; conditions: Bacillus subtilis; 37° C., 20 h
Description: (§1) Gram-positive bacteria (Micrococcus luteus, Bacillus subtilis, Staphylococcus aureus, Staphylococcus epidermidis and Enterococcus faecalis), Gram-negative bacteria (Escherichia coli and Pseudomonas aeruginosa) and the yeast (Candida albicans) were grown to exponential phase and then were diluted with fresh medium. BHI medium (Oxoid, Great Britain) was used for Enterococcus faecalis; YPD medium containing yeast extract peptone and glucose was used for Candida albicans and LB medium (Sigma, Czech Republic) was used for the remaining microorganisms. Then the microorganisms were added to the solutions of the tested antimicrobial peptides in LB medium in multi-well plates. The final peptide concentration it the wells was in the range of 0.1 to 100 μmol.l^−1. That was made by twofold serial dilution from the peptide stock solution (1 mmol.l^−1). The plates were incubated at 37° C. for 20 h while being continuously shaken in a Bioscreen C (Oy Growth Curves AB Ltd., Helsinki, Finland). Absorbance was measured at 540 nm every 15 min. Antimicrobial activity (Table 2) was determined as a quantitative minimum inhibitory concentration (MIC) by observing bacterial growth in the presence of different concentrations of tested peptides. In the experiments ca 10^5 CFU of bacteria or candida per well were routinely used.
(§2) Multiresistant clinical isolates of bacteria were obtained from University Hospital in Motol, Prague, Czech Republic and from Liberec Regional Hospital, Czech Republic. Methicillin resistant Staphylococcus aureus (MRSA) 6271 and Pseudomonas aeruginosa 5482 were from the Czech National Collection of Type Cultures, the National Institute of Public Health, Prague, Czech Republic. Other bacteria were from the Czech Collection of Microorganisms, Brno, Czech Republic. Candida albicans came from the Faculty of Medicine, Palacky University, Olomouc, Czech Republic.

[2] = system: Candida albicans Olomouc; conditions: Candida albicans Olomouc; YPD medium; 37° C., 20 h (Example 2)
Description: as §1, §2

[3] = system: Enterococcus faecalis Motol; conditions: BHI medium, 37° C., 20 h
Description: as §1, §2

[4] = system: Escherichia coli; conditions: 37° C., 20 h
Description: as §1, §2

[5] = system: Methicillin resistant Staphylococcus aureus (MRSA) 6271; conditions: 37° C., 20 h
Description: as §1, §2

[6] = system: Micrococcus luteus; conditions: Micrococcus luteus; 37° C., 20 h
Description: as §1, §2

[7] = system: Pseudomonas aeruginosa 5482; conditions: 37° C., 20 h
Description: as §1, §2

[8] = system: Pseudomonas aeruginosa Liberec; conditions: Pseudomonas aeruginosa Liberec; 37° C., 20 h
Description: as §1, §2

[9] = system: Staphylococcus aureus Liberec; conditions: Staphylococcus aureus Liberec clinical isolate; 37° C., 20 h
Description: as §1, §2

[10] = system: Staphylococcus aureus Motol; conditions: Staphylococcus aureus Motol clinical isolate; 37° C., 20 h
Description: as §1, §2

[11] = system: Staphylococcus epidermidis Motol; conditions: 37° C., 20 h
Description: as §1, §2

[12] = in vitro; conditions: human
Procedure, shortened: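 Hemolysis expressed as LC50, the concentration giving 50% erythrocyte lysis. Supernatant A540 was scaled between buffer-only blank and 0.2% Triton X100 total lysis after 1 h, 37 °C exposure of 5% v/v human red cells to 2-200 μmol.l^−1 peptide in physiological solution.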

[13] = system: Candida albicans (Olomouc); experiment: microbe, parasite or virus in culture; assay type: cell-based; conditions: RPMI broth microdilution, 35° C., 48 hours, visual
Description: (§3) All yeasts Candida albicans (Olomouc) and ATCC MYA-2876, Candida glabrata ATCC 2001 and DSY 565, Candida dubliniensis ATCC MYA-646, Candida krusei ATCC 6258 and Candida tropicalis ATCC 750 were sub-cultured from sterile vials onto Sabouraud dextrose agar, which was composed of 40 g dextrose (Penta, Czech Republic), 10 g peptone (OXOID, Great Britain) and 17 g agar (OXOID), dissolved in 1 l of distilled water, and cultivated for 24 hours at 35° C.
(§4) All strains were stored in a way that minimizes the possibility of mutation. Candida spp. were grown overnight in liquid YPD medium which is composed of 10 g yeast extract (DIFCO, USA), 20 g peptone (OXOID), and 20 g dextrose (Penta) dissolved in 1 l distilled water. Then the overnight culture was cryogenically preserved by suspending in 50% glycerol solution (1:1) in small vials and stored at −80° C.
(§5) The inoculum was prepared by picking five colonies from 24-hour-old cultures of Candida spp. The colonies were suspended in 1 ml of sterile saline solution and vortexed for 15 seconds. Optical density of the suspension was adjusted spectrophotometrically by adding sterile saline solution to produce optical density of 0.18 at 600 nm. A working suspension was made by a 1:50 dilution followed by a 1:20 dilution of the stock suspension with RPMI 1640 broth medium which was composed of L-glutamine without NaHCO3 (BioSera, France), and with 0.165 mol.l^−1 MOPS (Duchefa, Netherland)—further as RPMI broth medium.
(§6) The broth microdilution test was performed by using sterile, disposable, multi-well microdilution plates (96-well). The peptides in the concentrations 0.625-160 μmol.l^−1 were pipetted into the wells in 100 μl volumes. Each well of the plate was inoculated with 100 μl of the diluted inoculum suspension. Final yeast density in each well was 5×10^2 up to 2.5×10^3 CFU/ml. The microdilution plates were incubated without shaking at 35° C. and observed for the presence or absence of visible growth for 48 hours.
(§7) Drug-free medium without inoculation served as negative control; the growth positive control contained inoculated drug-free medium. Amphotericin B was used as control drug to ensure quality of Candida strains.
(§8) The minimal inhibition concentrations (MICs) were visually determined 48 hours after inoculation. The MIC values were defined as the lowest concentration in which no observable growth is noticeable.
(§9) All yeast isolates were obtained from the Institute of Physiology of the Academy of Sciences of the Czech Republic. Candida albicans (Olomouc) came from the Faculty of Medicine and Dentistry, Palacý University Olomouc.

[14] = system: Candida albicans ATCC MYA-2876; experiment: microbe, parasite or virus in culture; assay type: cell-based; conditions: RPMI broth microdilution, 35° C., 48 hours, visual
Description: as §3, §4, §5, §6, §7, §8, §9

[15] = system: Candida dubliniensis ATCC MYA-646; experiment: microbe, parasite or virus in culture; assay type: cell-based; conditions: RPMI broth microdilution, 35° C., 48 hours, visual
Description: as §3, §4, §5, §6, §7, §8, §9

[16] = system: Candida glabrata ATCC 2001; experiment: microbe, parasite or virus in culture; assay type: cell-based; conditions: RPMI broth microdilution, 35° C., 48 hours, visual
Description: as §3, §4, §5, §6, §7, §8, §9

[17] = system: Candida glabrata DSY 565; experiment: microbe, parasite or virus in culture; assay type: cell-based; conditions: RPMI broth microdilution, 35° C., 48 hours, visual
Description: as §3, §4, §5, §6, §7, §8, §9

[18] = system: Candida krusei ATCC 6258; experiment: microbe, parasite or virus in culture; assay type: cell-based; conditions: RPMI broth microdilution, 35° C., 48 hours, visual
Description: as §3, §4, §5, §6, §7, §8, §9

[19] = system: Candida tropicalis ATCC 750; experiment: microbe, parasite or virus in culture; assay type: cell-based; conditions: RPMI broth microdilution, 35° C., 48 hours, visual
Description: as §3, §4, §5, §6, §7, §8, §9

[20] = system: P. aeruginosa (Liberec); experiment: Synergistic effect of peptides with antibiotics, FIC index; assay type: cell-based, Pseudomonas aeruginosa; conditions: FIC <0.5 synergism, 0.5-2 additive, >2 antagonism, averages of three experiments; for FIC indexes (fractional inhibitory concentration) Combination with RIF against P. aeruginosa: peptide combined with rifampicin; for FIC indexes (fractional inhibitory concentration) Combination with TET against P. aeruginosa: peptide combined with tetracycline
Description: (§10) MICs values of various combinations of two fold serial dilutions of peptides and antibiotics were determined using the same methodology as in the case of antimicrobial activity determination (Example 2). To consider the type of the final effect, FIC indexes (fractional inhibitory concentration) were used and calculated as follows:
(§11) [formula] where MICPC and MICAC are the MICs of the peptide and antibiotic in combination, respectively, and MICP and MICA are the MICs of the peptide and antibiotic tested alone, respectively. FIC<0.5 were considered as synergy, 0.5≤FIC≤2 as addition effect, and FIC>2 as antagonism.

[21] = system: S. aureus (Liberec); experiment: as above; assay type: cell-based, Staphylococcus aureus; conditions: peptide combined with amoxicillin; FIC <0.5 synergism, 0.5-2 additive, >2 antagonism; averages of three experiments
Description: as §10, §11

H-GILSSLLKKWKKIIAK-NH2 [XVI]
Antimicrobial activity MIC B. s. [1]: 1.6 µM
Antimicrobial activity MIC C. a. Olomouc [2]: 10.5 µM
Antimicrobial activity MIC E. f. Motol [3]: 100.0 µM
Antimicrobial activity MIC E. c. [4]: 7.5 µM
Antimicrobial activity MIC S. a. 6271 [5]: 20.0 µM
Antimicrobial activity MIC M. l. [6]: 2.0 µM
Antimicrobial activity MIC P. a. 5482 [7]: 5.0 µM
Antimicrobial activity MIC P. a. Liberec [8]: 7.1 µM
Antimicrobial activity MIC S. a. Liberec [9]: 8.8 µM
Antimicrobial activity MIC S. a. Motol [10]: 20.3 µM
Antimicrobial activity MIC S. e. Motol [11]: 2.7 µM
HC50 at 1 h [12]: > 400 µM
Antifungal activity MIC C. albicans Olomouc [13]: 18.0 µM
Antifungal activity MIC C. albicans ATCC MYA-2876 [14]: 26.0 µM
Antifungal activity MIC C. dubliniensis ATCC MYA-646 [15]: 40.0 µM
Antifungal activity MIC C. glabrata ATCC 2001 [16]: 40.0 µM
Antifungal activity MIC C. glabrata DSY 565 [17]: 231.1 µM
Antifungal activity MIC C. krusei ATCC 6258 [18]: 10.0 µM
Antifungal activity MIC C. tropicalis ATCC 750 [19]: 1.0 µM
FIC indexes (fractional inhibitory concentration) Combination with RIF against P. aeruginosa [20]: 0.417
FIC indexes (fractional inhibitory concentration) Combination with TET against P. aeruginosa [20]: 0.583

H-GILSKLLKKLKKIIAK-NH2 [XI]
Antimicrobial activity MIC B. s. [1]: 1.4 µM
Antimicrobial activity MIC C. a. Olomouc [2]: 45.3 µM
Antimicrobial activity MIC E. f. Motol [3]: 72.7 µM
Antimicrobial activity MIC E. c. [4]: 17.5 µM
Antimicrobial activity MIC S. a. 6271 [5]: 22.7 µM
Antimicrobial activity MIC M. l. [6]: 1.6 µM
Antimicrobial activity MIC P. a. 5482 [7]: 4.5 µM
Antimicrobial activity MIC P. a. Liberec [8]: 8.5 µM
Antimicrobial activity MIC S. a. Liberec [9]: 5.9 µM
Antimicrobial activity MIC S. a. Motol [10]: 10.0 µM
Antimicrobial activity MIC S. e. Motol [11]: 1.8 µM
HC50 at 1 h [12]: > 400 µM
Antifungal activity MIC C. albicans Olomouc [13]: 12.0 µM
Antifungal activity MIC C. albicans ATCC MYA-2876 [14]: 20.0 µM
Antifungal activity MIC C. dubliniensis ATCC MYA-646 [15]: 10.5 µM
Antifungal activity MIC C. glabrata ATCC 2001 [16]: 26.0 µM
Antifungal activity MIC C. glabrata DSY 565 [17]: 40.0 µM
Antifungal activity MIC C. krusei ATCC 6258 [18]: 5.0 µM
Antifungal activity MIC C. tropicalis ATCC 750 [19]: 1.0 µM
FIC indexes (fractional inhibitory concentration) Combination with RIF against P. aeruginosa [20]: 0.344
FIC indexes (fractional inhibitory concentration) Combination with TET against P. aeruginosa [20]: 0.646
FIC indexes (fractional inhibitory concentration) Combination with AMX against S. aureus [21]: 0.333

H-GIMSSLMKKLAAHIKK-NH2 [VIII]
Antimicrobial activity MIC B. s. [1]: 2.8 µM
Antimicrobial activity MIC C. a. Olomouc [2]: 5.0 µM
Antimicrobial activity MIC E. f. Motol [3]: >100 µM
Antimicrobial activity MIC E. c. [4]: 20.0 µM
Antimicrobial activity MIC S. a. 6271 [5]: 85.3 µM
Antimicrobial activity MIC M. l. [6]: 1.6 µM
Antimicrobial activity MIC P. a. 5482 [7]: 23.0 µM
Antimicrobial activity MIC P. a. Liberec [8]: 46.0 µM
Antimicrobial activity MIC S. a. Liberec [9]: 76.7 µM
Antimicrobial activity MIC S. a. Motol [10]: 90.0 µM
Antimicrobial activity MIC S. e. Motol [11]: 11.3 µM
Antifungal activity MIC C. albicans Olomouc [13]: 17.0 µM
Antifungal activity MIC C. albicans ATCC MYA-2876 [14]: 20.0 µM
Antifungal activity MIC C. dubliniensis ATCC MYA-646 [15]: 36.0 µM
Antifungal activity MIC C. glabrata ATCC 2001 [16]: 26.0 µM
Antifungal activity MIC C. glabrata DSY 565 [17]: 66.7 µM
Antifungal activity MIC C. krusei ATCC 6258 [18]: 10.0 µM
Antifungal activity MIC C. tropicalis ATCC 750 [19]: 1.1 µM
